The results in this text go back to patent US11993573B2, “Chromane-substituted, tetrahydroquinoline-substituted and thiochromane-substituted heteroarotinoids as anti-cancer agents” (THE BOARD OF REGENTS FOR OKLAHOMA STATE UNIVERSITY, priority 2018, dated 2024).

Molecules are shown by their SMILES. Like-named read-outs stand apart in the source and are kept apart here.

Data set [1] concerns human ovarian cancer cell line A2780. The data set is described as follows: Growth inhibition assay (CellTiter 96 Non-Rad Cell Proliferation Assay). Conditions: for IC50 / Emax: Homo sapiens; for efficacy compared with SHetA2 / IC50 compared with SHetA2: comparison in words; for IC50 compared with SHetA2: 'exceeded' = lower IC50 in Table 1. The class given is cell-based. Here is the method: To illustrate the general activity of the compounds inhibiting growth of human […] ovarian cancer cells, selected compounds were synthesized and evaluated. The compounds were dissolved in DMSO at a concentration of 0.01 M. The human ovarian cancer cell line A2780 was plated in 96-well tissue culture dishes at a concentration of 3000 cells per well in RPMI medium supplemented with 10% fetal bovine serum and a mixture of antibiotics and antimycotics. The next day, the cultures were treated in triplicate with compound concentrations ranging from 2 μM to 8 μM increments. For compound 12, additional experiments were performed with concentrations of 10 μM and a series of two-fold dilutions to 156 nM. Control cultures were treated with DMSO solvent only. After 72 h of incubation, the […] 96® Non-Rad Cell Proliferation Assay (Promega) was used to quantify the remaining metabolically living cells. After subtracting blank values, the optical density (OD) readouts of the assay for the treated cultures were normalized with the average OD of the control cultures. For each compound, the experiment was repeated at least once, resulting in a minimum of 6 dose-response curves. For SHetA2, 24 response curves were available for statistical fitting parameters. A custom program was written in GNU Octave, a free software compatible with Matlab, to fit the dose-response curves with a four-parameter sigmoid function, extracting the IC50 and efficacy (the maximal % growth inhibition) parameters.
To illustrate the useful biological activity of these chroman-substituted and tetrahydroquinoline-substituted heteroarotinoids, the compounds were screened against human […] ovarian cancer cells.

Where [2] appears, read: A2780, 72 h, Table 1, chroman-containing series.
The mark [3] stands for this setting: A2780, 72 h, Table 1, maximal % growth inhibition, A2780, 72 h, read-out: Efficacy.
Setting [4] is: A2780, Table 3, 14 series (thiochroman), A2780.
Where [5] appears, read: A2780, Table 3, 14 series, A2780, read-out: % Efficacy.

For the compound `CC1(C)CC(C)(C)c2cc(NC(=S)Nc3ccc(C(F)(F)F)cc3)ccc2O1` [Compound 2c, 1-(2,2,4,4-Tetramethylchroman-6-yl)-3-(4-(trifluoromethyl)phenyl)thiourea], the melting point (usually the temperature of the solid-liquid transition) fell in the range of 166 to 168 °C. In addition, it took 4.7 µM to reach half-maximal inhibition in data set [1] (setting [2]) (IC50). The Emax in data set [1] (setting [3]) came to 22%.
In turn, `CC1(C)CC(C)(C)c2cc(NC(=S)Nc3ccc(S(N)(=O)=O)cc3)ccc2O1` [Compound 2d, 4-(3-(2,2,4,4-Tetramethylchroman-6-yl)thioureido)benzenesulfonamide] gave a melting point of 186 to 187 °C.
Regarding `CC1(C)CC(C)(C)c2cc(NC(=O)Nc3ccc(C(F)(F)F)cc3)ccc2O1` [Compound 3a, 1-(2,2,4,4-Tetramethylchroman-6-yl)-3-(4-(trifluoromethyl)phenyl)urea], the melting point was in the range of 245 to 246 °C. For the same compound, half-maximal inhibition in data set [1] (setting [2]) (IC50) required 4.1 µM. The Emax in data set [1] (setting [3]) was found to be 79%.
In the case of `CC1(C)CC(C)(C)c2cc(NC(=O)Nc3ccc(C#N)cc3)ccc2O1` [Compound 3b, 1-(4-Cyanophenyl)-3-(2,2,4,4-tetramethylchroman-6-yl)urea], the melting point lay within 225 to 226 °C. For the same compound, the “efficacy compared with SHetA2” value in data set [1] (A2780) is “exceeded the efficacy of SHetA2”.
The compound `CC1(C)CC(C)(C)c2cc(NC(=O)Nc3ccc(OC(F)(F)F)cc3)ccc2O1` [Compound 3c, 1-(2,2,4,4-Tetramethylchroman-6-yl)-3-(4-(trifluoromethoxy)phenyl)urea] showed a melting point of 219 to 221 °C. For the same compound, in data set [1] (setting [2]), the IC50 (usually the point on the concentration scale where inhibition reaches its midpoint) amounted to 3.6 µM. In data set [1] (setting [3]), the Emax came to 88.4%. Besides, the “efficacy compared with SHetA2” value in data set [1] (A2780) is reported as “exceeded the efficacy of SHetA2”.
`CC1(C)CCOc2ccc(NC(=S)Nc3ccc(C(F)(F)F)cc3)cc21` [Compound 4b, 1-(4,4-Dimethylchroman-6-yl)-3-(4-(trifluoromethyl)phenyl)thiourea] registered a melting point of 147 to 149 °C. The compound further came in with an IC50 in data set [1] (setting [2]) of 5.5 µM. Also, in data set [1] (setting [3]), the Emax was determined as 28%.
The matching figures for `CC1(C)CCOc2ccc(NC(=S)Nc3ccc(OC(F)(F)F)cc3)cc21` [Compound 4c, 1-(4,4-Dimethylchroman-6-yl)-3-(4-(trifluoromethoxy)phenyl)thiourea]: 153 to 154 °C, 4.3 µM and 16%.
Regarding `CC1(C)CCOc2ccc(NC(=O)Nc3ccc(OC(F)(F)F)cc3)cc21` [Compound 5c, 1-(4,4-Dimethylchroman-6-yl)-3-(4-(trifluoromethoxy)phenyl)urea], the melting point was 230 to 231 °C. In addition, the IC50 in data set [1] (setting [2]) is 3.5 µM. Also, the Emax in data set [1] (setting [3]) was found to be 36%.
Compound `CCC1(CC)CC(C)(C)c2cc(NC(=O)Nc3ccc(C(F)(F)F)cc3)ccc2O1` [Compound 6c, 1-(2,2-Diethyl-4,4-dimethylchroman-6-yl)-3-(4-(trifluoromethyl)phenyl)urea] displayed a melting point of 208 to 210 °C. Further, half-maximal inhibition in data set [1] (setting [2]) (IC50) required 2.45 µM. In addition, the Emax in data set [1] (setting [3]) amounted to 92.4%. In data set [1] (A2780), the “efficacy compared with SHetA2” value was “exceeded the efficacy of SHetA2” and the “IC50 compared with SHetA2” value is “exceeded”.
`CCC1(CC)CC(C)(C)Oc2ccc(NC(=S)Nc3ccc(C(F)(F)F)cc3)cc21` [Compound 7b, 1-(4,4-Diethyl-2,2-dimethylchroman-6-yl)-3-(4-(trifluoromethyl)phenyl)thiourea] had a melting point of 155 to 156 °C. For the same compound, the IC50 in data set [1] (setting [2]) came out at 4.7 µM. The Emax in data set [1] (setting [3]) came out at 11.8%.
Regarding `CCC1(CC)CC(C)(C)Oc2ccc(NC(=O)Nc3ccc(C(F)(F)F)cc3)cc21` [Compound 7d, 1-(4,4-Diethyl-2,2-dimethylchroman-6-yl)-3-(4-(trifluoromethyl)phenyl)urea], the melting point was in the range of 225 to 226 °C. The compound also returned a half-inhibitory concentration (IC50) in data set [1] (setting [2]) of 2.43 µM. Besides, in data set [1] (setting [3]), the Emax stood at 93.3%. In data set [1] (A2780), the “efficacy compared with SHetA2” value is “exceeded the efficacy of SHetA2” and the “IC50 compared with SHetA2” value was “exceeded”.
As for `CCC1(CC)CC(CC)(CC)c2cc(NC(=O)Nc3ccc(C(F)(F)F)cc3)ccc2O1` [Compound 8c, 1-(2,2,4,4-Tetraethylchroman-6-yl)-3-(4-(trifluoromethyl)phenyl)urea], the melting point was 165 to 166 °C. In addition, in data set [1] (setting [2]), the IC50 came out at 2 µM. The Emax in data set [1] (setting [3]) was 86.2%. Besides, the “IC50 compared with SHetA2” value in data set [1] (A2780) is recorded as “exceeded”.
The compound `COc1cccc(NC(=S)Nc2ccc3c(c2)C(C)(C)CC(C)(C)S3)c1` [Compound 14i, 1-(3-Methoxyphenyl)-3-(2,2,4,4-tetramethylthiochroman-6-yl)thiourea] yielded a half-inhibitory concentration (IC50) in data set [1] (setting [4]) of 3.04 ± 0.52 µM. The Emax in data set [1] (setting [5]) stood at 38.8 ± 0.04%.
In the case of `CC1(C)CC(C)(C)c2cc(NC(=S)NCc3ccccc3)ccc2S1` [Compound 14j, 1-Benzyl-3-(2,2,4,4-tetramethylthiochroman-6-yl)thiourea], in data set [1] (setting [4]), the midpoint of inhibition, the IC50, lay at 3.03 ± 0.47 µM. Further, in data set [1] (setting [5]), the Emax stood at 85.6 ± 0.6%. The “efficacy compared with SHetA2” value in data set [1] (A2780) is given as “exceeded that of SHetA2 in efficacy”.
In data set [1] (setting [4]), `CC1(C)CC(C)(C)c2cc(NC(=S)NCCc3ccccc3)ccc2S1` [Compound 14k, 1-Phenethyl-3-(2,2,4,4-tetramethylthiochroman-6-yl)thiourea] registered a concentration for half-maximal inhibition (IC50) of 3.19 ± 0.47 µM. The Emax in data set [1] (setting [5]) was found to be 88.2 ± 0.3%. For the same compound, the “efficacy compared with SHetA2” value in data set [1] (A2780) was “exceeded that of SHetA2 in efficacy”.
On the same counts, the results for `CC1(C)CC(C)(C)c2cc(NC(=S)NCc3ccc(Cl)cc3)ccc2S1` [Compound 14l, 1-(4-Chlorobenzyl)-3-(2,2,4,4-tetramethylthiochroman-6-yl)thiourea] are 2.98 ± 0.44 µM, 89.4 ± 2.8% and “exceeded that of SHetA2 in efficacy”.
In data set [1] (setting [4]), `CC1(C)CC(C)(C)c2cc(NC(=S)NCc3ccc([N+](=O)[O-])cc3)ccc2S1` [Compound 14m, 1-(4-Nitrobenzyl)-3-(2,2,4,4-tetramethylthiochroman-6-yl)thiourea] displayed a half-inhibitory concentration (IC50) of 4.7 ± 0.11 µM. The Emax in data set [1] (setting [5]) is 94.5 ± 0.6%. Moreover, the “efficacy compared with SHetA2” value in data set [1] (A2780) is listed as “exceeded that of SHetA2 in efficacy”.
As to `CC1(C)CC(C)(C)c2cc(NC(=S)NCc3ccc(C(F)(F)F)cc3)ccc2S1` [Compound 14n, 1-(2,2,4,4-Tetramethylthiochroman-6-yl)-3-(4-(trifluoromethyl)benzyl)thiourea], in data set [1] (setting [4]), half-maximal inhibition (IC50) required 4.82 ± 0.41 µM. The Emax in data set [1] (setting [5]) stood at 95.3 ± 0.3%. In addition, the “efficacy compared with SHetA2” value in data set [1] (A2780) is “exceeded that of SHetA2 in efficacy”.
`COc1ccc(CNC(=S)Nc2ccc3c(c2)C(C)(C)CC(C)(C)S3)cc1` [Compound 14o, 1-(4-Methoxybenzyl)-3-(2,2,4,4-tetramethylthiochroman-6-yl)thiourea]: the IC50 in data set [1] (setting [4]) came to 3.26 ± 0.43 µM. Besides, in data set [1] (setting [5]), the Emax was found to be 89.6 ± 0.9%. For the same compound, in data set [1] (A2780), the “efficacy compared with SHetA2” value is “exceeded that of SHetA2 in efficacy”.
In turn, `CC1(C)CC(C)(C)c2cc(NC(=S)NCc3ccc(O)cc3)ccc2S1` [Compound 14p, 1-(4-Hydroxybenzyl)-3-(2,2,4,4-tetramethylthiochroman-6-yl)thiourea] showed an IC50 in data set [1] (setting [4]) of 3.23 ± 0.49 µM. Moreover, the Emax in data set [1] (setting [5]) is 56.8 ± 3.3%.
The matching figures for `CC1(C)CC(C)(C)c2cc(NC(=S)NNc3ccccc3)ccc2S1` [Compound 14q, 2-Phenyl-N-(2,2,4,4-tetramethylthiochroman-6-yl)hydrazine-1-carbothioamide]: 7.03 ± 0.31 µM and 63.6 ± 3.7%.
In data set [1] (setting [4]), `CC1(C)CC(C)(C)c2cc(NC(=S)NNC(=O)c3ccccc3)ccc2S1` [Compound 14r, 2-Benzoyl-N-(2,2,4,4-tetramethylthiochroman-6-yl)hydrazine-1-carbothioamide] came in with an IC50 of 0.82 ± 0.21 µM. The Emax in data set [1] (setting [5]) came out at 67.9 ± 2.6%.
In turn, `CC1(C)CC(C)(C)c2cc(NC(=S)NNC(=O)c3ccc([N+](=O)[O-])cc3)ccc2S1` [Compound 14s, 2-(4-Nitrobenzoyl)-N-(2,2,4,4-tetramethylthiochroman-6-yl)hydrazine-1-carbothioamide] had an IC50 in data set [1] (setting [4]) of 3.15 ± 0.19 µM. For the same compound, the Emax in data set [1] (setting [5]) is 43.3 ± 2.9%.
As to `CC1(C)CC(C)(C)c2cc(NC(=S)NNC(=O)c3ccc(OC(F)(F)F)cc3)ccc2S1` [Compound 14t, N-(2,2,4,4-Tetramethylthiochroman-6-yl)-2-(4-(trifluoromethoxy)benzoyl)hydrazine-1-carbothioamide], the IC50 in data set [1] (setting [4]) amounted to 3.6 ± 0.18 µM. For the same compound, in data set [1] (setting [5]), the Emax came to 57.4 ± 0.4%.
Regarding `CC1(C)CC(C)(C)c2cc(NC(=S)NNC(=O)c3cc(C(F)(F)F)cc(C(F)(F)F)c3)ccc2S1` [Compound 14u, 2-(3,5-Bis(trifluoromethyl)benzoyl)-N-(2,2,4,4-tetramethylthiochroman-6-yl)hydrazine-1-carbothioamide], the midpoint of inhibition in data set [1] (setting [4]), the IC50, lay at 4 ± 0.12 µM. Besides, in data set [1] (setting [5]), the Emax stood at 61.4 ± 2.9%.
On the same counts, the results for `CC1(C)CCSc2ccc(NC(=S)Nc3ccc([N+](=O)[O-])cc3)cc21` [Compound 14v, 1-(4,4-dimethyl-6-yl)-3-(4-nitrophenyl)thiourea] are 4.01 ± 0.19 µM and 93.5 ± 1.7%.
